Measured values from BindingDB's records for doi:10.1021/jm00123a006 (University of Pennsylvania, 1989).

Molecular target: 5-HT1A receptor (Bos taurus)
Assay: In vitro inhibition of [3H]5-HT (2 nM) binding to 5-hydroxytryptamine 1A receptor from bovine hippocampus

SMILES: [N-]=[N+]=Nc1ccc(CCN2CCN(c3cccc(C(F)(F)F)c3)CC2)cc1I
- IC50: 35 nM
